Measured values taken from patent US8871787B2, “Stable crystalline salt of (R)-3-fluorophenyl-3,4,5-trifluorobenzylcarbamic acid 1-azabicyclo [2.2.2]oct-3-yl ester” (Laboratorios Salvat, S.A., priority 2007, dated 2014).

System: patients suffering from Overactive Bladder syndrome
Assay: Phase II clinical trial: pharmacodynamics in overactive bladder patients (urodynamic assessments, tolerability)
Details: 4 weeks
Experimental: A pharmacodynamic study of tarafenacin tartrate in patients suffering from Overactive Bladder syndrome was performed to obtain first efficacy and tolerability data in this population.
The study was randomised, double-blind, placebo and active-controlled. Patients received tarafenacin tartrate at the dose of 0.1 or 0.2 mg, tolterodine 4 mg or placebo o.d. during 4 weeks, just after a 2 week single-blind wash-out period in which all patients received placebo. Urodynamic assessments were performed at baseline and after 4 weeks administration.
It was planned to screen approximately 100 patients and randomize 77 patients, to obtain outcome data on 63 patients. Patients who entered the study were randomized into the four treatment groups during the double blind treatment period.
After a Screening visit and a 14 day washout single blind period (placebo run in), patients were randomized to one of the four treatment arms by a 2:2:2:1 randomization schedule. In a single blind period, only the patients were blinded. During the treatment period, each patient received tarafenacin tartrate 0.1 mg/tarafenacin tartrate 0.2 mg/tolterodine (ER) 4 mg/placebo. Identical capsules were used to maintain the study blind.
The end of study procedures were performed at the Day 28 visit (End of Treatment [EOT]). A study follow up was conducted at Day 35 either telephonically or the patient was called to the clinic (End of Study [EOS]).
The primary endpoint was the pharmacodynamic endpoints and they were assessed as the mean change from baseline to Day 28 in urodynamic, salivary flow, and accommodation near point pharmacodynamic assessments.

[1] = 0.1 mg o.d., change from baseline to Day 28

Compound: O=C(O)C(O)C(O)C(=O)O.O=C(O[C@H]1CN2CCC1CC2)N(Cc1cc(F)c(F)c(F)c1)c1cccc(F)c1 [D-tartrate salt, D-tartrate salt of (R)-3-fluorophenyl-3,4,5-trifluorobenzylcarbamic acid 1-azabicyclo[2.2.2]oct-3-yl ester]
- incidence of treatment emergent adverse events (0.1 mg o.d.): 25%
- increase in infused volume [1]: 73 mL
- increase in volume at first desire to void [1]: 60 mL
- increase in volume at strong desire to void [1]: 71 mL
- dose-response relationship (in words) (0.1 mg versus 0.2 mg o.d.): no dose-response relationship
- incidence of treatment emergent adverse events (0.2 mg o.d.): 33%
- tolerability (in words) (OAB patients): well tolerated
- pharmacological activity (in words) (OAB patients, listed as Tarafenacin tartrate): good pharmacological activity
- pharmacological activity (in words) (OAB patients, listed as tarafenacin tartrate): higher pharmacological activity
